Consider 9 compounds from patent US20180186742A1, “PICOLINAMIDES AS FUNGICIDES” (Dow AgroSciences LLC, priority 2017, published 2018).

What all share (format): in vivo
For one experiment, the system named is Parastagonospora nodorum. Kind of experiment: Wheat glume blotch (LEPTNO), disease control on wheat seedlings. Conditions: 1DP test at 100 ppm, read-out: LEPTNO disease control rating. As to the method:
Technical grades of materials were dissolved in acetone, which were then mixed with nine volumes of water containing 110 ppm Triton X-100. The fungicide solutions were applied onto wheat seedlings using an automated booth sprayer to run-off. All sprayed plants were allowed to air dry prior to further handling. All fungicides were evaluated using the aforementioned method for their activity vs. all target diseases, unless stated otherwise. Wheat leaf blotch and brown rust activity were also evaluated using track spray applications, in which case the fungicides were formulated as EC formulations, containing 0.1% Trycol 5941 in the spray solutions. Wheat plants (variety Yuma) were grown from seed in a greenhouse in 50% mineral soil/50% soil-less Metro mix until the first leaf was fully emerged, with 7-10 seedlings per pot. These plants were inoculated with an aqueous spore suspension of Parastagonospora nodorum 24 hr after fungicide treatments. After inoculation the plants were kept in 100% relative humidity (one day in a dark dew chamber followed by two days in a lighted dew chamber at 20° C.) to permit spores to germinate and infect the leaf. The plants were then transferred to a greenhouse set at 20° C. for disease to develop. Fungicide formulation, application and disease assessment followed the procedures as described in the Example A.

The next experiment relates to Uncinula necator. Kind of experiment: Grape powdery mildew (UNCINE), disease control on grape seedlings. The note with it: Erysiphe necator, 24 h, 1DP (1 Day Protectant) test at 100 ppm. As to the method: Technical grades of materials were dissolved in acetone, which were then mixed with nine volumes of water containing 110 ppm Triton X-100. The fungicide solutions were applied onto wheat seedlings using an automated booth sprayer to run-off. All sprayed plants were allowed to air dry prior to further handling. All fungicides were evaluated using the aforementioned method for their activity vs. all target diseases, unless stated otherwise. Wheat leaf blotch and brown rust activity were also evaluated using track spray applications, in which case the fungicides were formulated as EC formulations, containing 0.1% Trycol 5941 in the spray solutions. Grape seedlings (variety Carignane) were grown in soil-less Metro mix, with one plant per pot, and used in the test when approximately 1 month old. Plants were inoculated 24 hr after fungicide treatment by shaking spores from infected leaves over test plants. Plants were maintained in a greenhouse set at 20° C. until disease was fully developed. Fungicide formulation, application and disease assessment on sprayed leaves followed the procedures as described in the Example A.

A further experiment concerns Phakopsora pachyrhizi. Briefly: Asian soybean rust (PHAKPA), disease control on soybean seedlings. The note with it: High volume application at 25 ppm. The method in brief: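 Two-week-old Williams 82 soybean seedlings were sprayed to run-off with compound in acetone/water (1:9) containing 0.011% Tween 20. Inoculation was 3 days before (curative) or 1 day after (protectant) treatment, followed by 24 h dark dew at 22 °C, 100% RH, then 23 °C; disease severity scored on sprayed leaves.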

The test system of the next experiment is Rhyncosporium secalis. Briefly: Barley scald (RHYNSE), disease control on barley seedlings. Conditions: Hordeum vulgare, 24 h, 1DP (1 Day Protectant) test at 100 ppm. The procedure:
Technical grades of materials were dissolved in acetone, which were then mixed with nine volumes of water containing 110 ppm Triton X-100. The fungicide solutions were applied onto wheat seedlings using an automated booth sprayer to run-off. All sprayed plants were allowed to air dry prior to further handling. All fungicides were evaluated using the aforementioned method for their activity vs. all target diseases, unless stated otherwise. Wheat leaf blotch and brown rust activity were also evaluated using track spray applications, in which case the fungicides were formulated as EC formulations, containing 0.1% Trycol 5941 in the spray solutions. Barley seedlings (variety Harrington) were propagated in soil-less Metro mix, with each pot having 8 to 12 plants, and used in the test when first leaf was fully emerged. Test plants were inoculated by an aqueous spore suspension of Rhyncosporium secalis 24 hr after fungicide treatments. After inoculation the plants were kept in a dew room at 20° C. with 100% relative humidity for 48 hr. The plants were then transferred to a greenhouse set at 20° C. for disease to develop. Fungicide formulation, application and disease assessment on the sprayed leaves followed the procedures as described in the Example A.

The test system of experiment [1] is Magnaporthe grisea; Anamorph: Pyricularia oryzae. Briefly: whole plant or invertebrate. The note with it: 24 h, read-out: PYRIOR Disease Control.
Experiment [2] deals with Glomerella lagenarium; Anamorph: Colletotrichum lagenarium. Kind of experiment: Cucumber anthracnose (COLLLA), disease control on cucumber seedlings. Conditions: Colletotrichum orbiculare, 1DP test at 100 ppm, read-out: COLLLA disease control rating. As to the method:
Technical grades of materials were dissolved in acetone, which were then mixed with nine volumes of water containing 110 ppm Triton X-100. The fungicide solutions were applied onto wheat seedlings using an automated booth sprayer to run-off. All sprayed plants were allowed to air dry prior to further handling. All fungicides were evaluated using the aforementioned method for their activity vs. all target diseases, unless stated otherwise. Wheat leaf blotch and brown rust activity were also evaluated using track spray applications, in which case the fungicides were formulated as EC formulations, containing 0.1% Trycol 5941 in the spray solutions. Cucumber seedlings (variety Bush Pickle) were propagated in soil-less Metro mix, with each pot having one plant, and used in the test when 12 to 14 days old. Test plants were inoculated with an aqueous spore suspension of Colletotrichum lagenarium 24 hr after fungicide treatments. After inoculation the plants were kept in a dew room at 22° C. with 100% relative humidity for 48 hr to permit spores to germinate and infect the leaf. The plants were then transferred to a growth room set at 22° C. for disease to develop. Fungicide formulation, application and disease assessment on the sprayed leaves followed the procedures as described in the Example A.

The subject of experiment [3] is Pseudoperonospora cubensis. Briefly: Cucumber downy mildew (PSPECU), disease control on cucumber seedlings. Conditions: 24 h, 1DP (1 Day Protectant) test at 100 ppm. The procedure: Technical grades of materials were dissolved in acetone, which were then mixed with nine volumes of water containing 110 ppm Triton X-100. The fungicide solutions were applied onto wheat seedlings using an automated booth sprayer to run-off. All sprayed plants were allowed to air dry prior to further handling. All fungicides were evaluated using the aforementioned method for their activity vs. all target diseases, unless stated otherwise. Wheat leaf blotch and brown rust activity were also evaluated using track spray applications, in which case the fungicides were formulated as EC formulations, containing 0.1% Trycol 5941 in the spray solutions. Cucumber seedlings (variety Bush Pickle) were grown in soil-less Metro mix, with one plant per pot, and used in the test when 12 to 14 days old. Plants were inoculated with a spore suspension 24 hr following fungicide treatments. Test plants were inoculated with an aqueous spore suspension of Pseudoperonospora cubensis 24 hr after fungicide treatments. After inoculation the plants were kept in a dew room at 22° C. with 100% relative humidity for 24 hr to permit spores to germinate and infect the leaf. The plants were then transferred to a greenhouse set at 20° C. until disease was fully expressed. Fungicide formulation, application and disease assessment on the sprayed leaves followed the procedures as described in the Example A.

[4] abbreviates: 24 h, 1 Day Protectant, read-out: PHAKPA 1DP disease control rating.
[5] abbreviates: 72 h, 3 Day Curative, read-out: PHAKPA 3DC disease control rating.

Structures are written as SMILES. Like-named read-outs stand apart in the source and are kept apart here. Some results are limits rather than exact numbers.

Turning to `CCC(=O)Oc1c(OC)ccnc1C(=O)N[C@@H](C)C(=O)O[C@@H](C)[C@H](c1ccc(F)cc1C)C(C)C` [Compound 357], the pest or weed control at 100 ppm in the experiment with Parastagonospora nodorum is over 80%; with Uncinula necator, over 80%; in the experiment with Rhyncosporium secalis, under 80%; in experiment [1], under 80%; in experiment [2], over 80%; in experiment [3] it was under 80%. The pest or weed control at 25 ppm with Phakopsora pachyrhizi (setting [4]) and in the experiment on Phakopsora pachyrhizi (setting [5]) was over 80% each time.
For the compound `COc1ccnc(C(=O)N[C@@H](C)C(=O)O[C@@H](C)[C@H](c2cccc(F)c2C)C(C)C)c1OC(C)=O` [Compound 359], the pest or weed control at 100 ppm is over 80% with Parastagonospora nodorum; over 80% in the experiment with Uncinula necator; over 80% with Rhyncosporium secalis; over 80% in experiment [1]; over 80% in experiment [2]; under 80% in experiment [3]. The pest or weed control at 25 ppm in the experiment with Phakopsora pachyrhizi (setting [4]) and in the experiment with Phakopsora pachyrhizi (setting [5]) was over 80% in each case.
For `COc1ccnc(C(=O)N[C@@H](C)C(=O)O[C@@H](C)[C@H](c2cccc(C)c2C)C(C)C)c1OC(C)=O` [Compound 363], the pest or weed control at 100 ppm with Parastagonospora nodorum is under 80%; in the experiment on Uncinula necator it was over 80%; in the experiment with Rhyncosporium secalis, under 80%; in experiment [1], over 80%; in experiment [2], under 80%; in experiment [3], under 0%. The pest or weed control at 25 ppm in the experiment on Phakopsora pachyrhizi (setting [4]) and with Phakopsora pachyrhizi (setting [5]) was over 80% each time.
On to `COc1ccnc(C(=O)N[C@@H](C)C(=O)O[C@@H](C)[C@H](c2ccccc2C)C(C)C)c1OC(C)=O` [Compound 364], for which the pest or weed control at 100 ppm was under 80% in the experiment with Parastagonospora nodorum; over 80% in the experiment with Uncinula necator; under 80% with Rhyncosporium secalis; over 80% in experiment [1]; over 80% in experiment [2]; under 80% in experiment [3]. The pest or weed control at 25 ppm with Phakopsora pachyrhizi (setting [4]) and in the experiment on Phakopsora pachyrhizi (setting [5]) was over 80% throughout.
For the compound `CCOC(=O)Oc1c(OC)ccnc1C(=O)N(C(=O)OCC)[C@@H](C)C(=O)O[C@@H](C)[C@H](c1ccc(F)cc1C)C(C)C` [Compound 371], the pest or weed control at 100 ppm with Parastagonospora nodorum is over 80%; in the experiment on Uncinula necator, over 80%; with Rhyncosporium secalis, under 80%; in experiment [1] it was under 80%; in experiment [2], over 80%; in experiment [3], under 80%. Also, the pest or weed control at 25 ppm in the experiment with Phakopsora pachyrhizi (setting [4]) and in the experiment on Phakopsora pachyrhizi (setting [5]) was over 80% in each case.
Take `CCOC(=O)Oc1c(OC)ccnc1C(=O)N[C@@H](C)C(=O)O[C@@H](C)[C@H](c1ccc(F)cc1C)C(C)C` [Compound 372]: the pest or weed control at 100 ppm in the experiment with Parastagonospora nodorum is over 80%; in the experiment on Uncinula necator it was over 80%; in the experiment with Rhyncosporium secalis it was under 80%; in experiment [1], under 80%; in experiment [2], over 80%; in experiment [3], over 80%. Besides, the pest or weed control at 25 ppm in the experiment on Phakopsora pachyrhizi (setting [4]) and in the experiment on Phakopsora pachyrhizi (setting [5]) was over 80% throughout.
Regarding `COc1ccnc(C(=O)N[C@@H](C)C(=O)O[C@@H](C)[C@H](c2ccc(F)cc2C)C(C)C)c1OC(=O)OC(C)C` [Compound 373], the pest or weed control at 100 ppm is over 80% with Parastagonospora nodorum; over 80% with Uncinula necator; under 80% in the experiment on Rhyncosporium secalis; under 80% in experiment [1]; over 80% in experiment [2]; under 80% in experiment [3]. Further, the pest or weed control at 25 ppm in the experiment on Phakopsora pachyrhizi (setting [4]) and in the experiment on Phakopsora pachyrhizi (setting [5]) was over 80% each time.
In the case of `COc1ccnc(C(=O)N[C@@H](C)C(=O)O[C@@H](C)[C@H](c2ccc(F)cc2C)C(C)C)c1OC(=O)C(C)(C)C` [Compound 374], the pest or weed control at 100 ppm in the experiment with Parastagonospora nodorum was over 80%; in the experiment on Uncinula necator, over 80%; in the experiment with Rhyncosporium secalis, under 80%; in experiment [1], under 80%; in experiment [2], under 80%; in experiment [3] it was under 80%. Besides, the figures for the pest or weed control at 25 ppm in the experiment with Phakopsora pachyrhizi (setting [4]) and in the experiment on Phakopsora pachyrhizi (setting [5]) were over 80% and under 80%, respectively.
As for `COc1ccnc(C(=O)N[C@@H](C)C(=O)O[C@@H](C)[C@H](c2ccccc2C)C(C)C)c1OC(=O)C(C)C` [Compound 375], the pest or weed control at 100 ppm with Parastagonospora nodorum was over 80%; with Uncinula necator it was over 80%; in the experiment on Rhyncosporium secalis, under 80%; in experiment [1] it was over 80%; in experiment [2], over 80%; in experiment [3] it was under 80%. Besides, the pest or weed control at 25 ppm with Phakopsora pachyrhizi (setting [4]) and in the experiment on Phakopsora pachyrhizi (setting [5]) was over 80% in each case.
